# Source: PMC10638516 (Acta Pharmaceutica Sinica. B, 2023)
# Target: T1, hD3R (Homo sapiens, UniProt P35462)
# Assay: biochemical
# Format: binding
# Conditions: Ki hD3, three experiments, means ± SEM
# T1 sequence (P35462 whole entry): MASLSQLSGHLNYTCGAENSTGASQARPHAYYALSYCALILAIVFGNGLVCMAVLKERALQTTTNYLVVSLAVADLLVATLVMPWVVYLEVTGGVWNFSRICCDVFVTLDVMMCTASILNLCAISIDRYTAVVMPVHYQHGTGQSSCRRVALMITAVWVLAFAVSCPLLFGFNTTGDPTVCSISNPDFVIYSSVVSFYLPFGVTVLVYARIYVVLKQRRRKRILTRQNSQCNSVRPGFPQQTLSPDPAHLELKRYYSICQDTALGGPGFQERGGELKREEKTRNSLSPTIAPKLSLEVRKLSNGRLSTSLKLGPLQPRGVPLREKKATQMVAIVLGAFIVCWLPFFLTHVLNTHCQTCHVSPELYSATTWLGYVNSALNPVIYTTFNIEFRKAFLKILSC
row,Compound,Ki [nM]
1,CCn1c2ccccc2c2cc(CNCCCCNC(=O)c3ccc(-c4ccc(C(C)=O)cc4)cc3)ccc21 [23h],24.2 ± 4.4
2,CCn1c2ccccc2c2cc(CNCCCCNC(=O)c3ccc4[nH]c5ccccc5c4c3)ccc21 [23k],145 ± 11.9
3,CCn1c2ccccc2c2cc(CNCCCCNC(=O)c3cnc4ccccc4c3)ccc21 [23l],85.7 ± 2.9
4,CCN(CCCCNC(=O)c1cc2ccccc2[nH]1)Cc1ccc2c(c1)c1ccccc1n2CC [31a],134 ± 9.6
5,CCN(CCCCNC(=O)c1ccc(-c2cccnc2)cc1)Cc1ccc2c(c1)c1ccccc1n2CC [31b],422 ± 18.3
6,CCCN(CCCCNC(=O)c1cc2ccccc2[nH]1)Cc1ccc2c(c1)c1ccccc1n2CC [31c],448 ± 26.1
7,CCCN(CCCCNC(=O)c1ccc(-c2cccnc2)cc1)Cc1ccc2c(c1)c1ccccc1n2CC [31d],994 ± 45.3
8,CCCN(CCCCNC(=O)c1cc2ccccn2n1)Cc1ccc2c(c1)c1ccccc1n2CC [31e],478 ± 29.4
9,Cn1c2c(c3ccccc31)CN(CCCCNC(=O)c1cc3ccccc3[nH]1)CC2 [36a],10.6 ± 4.5
10,Cn1c2c(c3ccccc31)CN(CCCCNC(=O)c1ccc(-c3cccnc3)cc1)CC2 [36g],29 ± 3.3
11,Cn1c2c(c3ccccc31)CN(CCCCNC(=O)c1ccc3[nH]c4ccccc4c3c1)CC2 [36h],19.6 ± 7.3
12,Cn1c2c(c3ccccc31)CN(CCCCNC(=O)c1ccc3[nH]c(=O)[nH]c3c1)CC2 [36i],3.7 ± 0.6

# Same assay, conditions: read-out: % inhibition at 10 μmol/L hD3, 10 μmol/L test compound
row,Compound,inhibition at 10 µM [%]
1,CCn1c2ccccc2c2cc(CNCCCCNC(=O)c3ccc(-c4ccc(C(C)=O)cc4)cc3)ccc21 [23h],105 ± 1.5
2,CCn1c2ccccc2c2cc(CNCCCCNC(=O)c3ccc4[nH]c5ccccc5c4c3)ccc21 [23k],98.1 ± 0.8
3,CCn1c2ccccc2c2cc(CNCCCCNC(=O)c3cnc4ccccc4c3)ccc21 [23l],100 ± 1.3
4,CCN(CCCCNC(=O)c1cc2ccccc2[nH]1)Cc1ccc2c(c1)c1ccccc1n2CC [31a],96.2 ± 0.2
5,CCN(CCCCNC(=O)c1ccc(-c2cccnc2)cc1)Cc1ccc2c(c1)c1ccccc1n2CC [31b],78.5 ± 0.3
6,CCCN(CCCCNC(=O)c1cc2ccccc2[nH]1)Cc1ccc2c(c1)c1ccccc1n2CC [31c],98.6 ± 0.6
7,CCCN(CCCCNC(=O)c1ccc(-c2cccnc2)cc1)Cc1ccc2c(c1)c1ccccc1n2CC [31d],81.3 ± 0.6
8,CCCN(CCCCNC(=O)c1cc2ccccn2n1)Cc1ccc2c(c1)c1ccccc1n2CC [31e],74.8 ± 1.5
9,Cn1c2c(c3ccccc31)CN(CCCCNC(=O)c1cc3ccccc3[nH]1)CC2 [36a],97.6 ± 2
10,Cn1c2c(c3ccccc31)CN(CCCCNC(=O)c1ccc(-c3cccnc3)cc1)CC2 [36g],83.8 ± 12.7
11,Cn1c2c(c3ccccc31)CN(CCCCNC(=O)c1ccc3[nH]c4ccccc4c3c1)CC2 [36h],95.5 ± 0.7
12,Cn1c2c(c3ccccc31)CN(CCCCNC(=O)c1ccc3[nH]c(=O)[nH]c3c1)CC2 [36i],87.5 ± 6.1

# Target: hERG channel (Homo sapiens, UniProt Q12809)
# Sequence (Q12809 whole entry): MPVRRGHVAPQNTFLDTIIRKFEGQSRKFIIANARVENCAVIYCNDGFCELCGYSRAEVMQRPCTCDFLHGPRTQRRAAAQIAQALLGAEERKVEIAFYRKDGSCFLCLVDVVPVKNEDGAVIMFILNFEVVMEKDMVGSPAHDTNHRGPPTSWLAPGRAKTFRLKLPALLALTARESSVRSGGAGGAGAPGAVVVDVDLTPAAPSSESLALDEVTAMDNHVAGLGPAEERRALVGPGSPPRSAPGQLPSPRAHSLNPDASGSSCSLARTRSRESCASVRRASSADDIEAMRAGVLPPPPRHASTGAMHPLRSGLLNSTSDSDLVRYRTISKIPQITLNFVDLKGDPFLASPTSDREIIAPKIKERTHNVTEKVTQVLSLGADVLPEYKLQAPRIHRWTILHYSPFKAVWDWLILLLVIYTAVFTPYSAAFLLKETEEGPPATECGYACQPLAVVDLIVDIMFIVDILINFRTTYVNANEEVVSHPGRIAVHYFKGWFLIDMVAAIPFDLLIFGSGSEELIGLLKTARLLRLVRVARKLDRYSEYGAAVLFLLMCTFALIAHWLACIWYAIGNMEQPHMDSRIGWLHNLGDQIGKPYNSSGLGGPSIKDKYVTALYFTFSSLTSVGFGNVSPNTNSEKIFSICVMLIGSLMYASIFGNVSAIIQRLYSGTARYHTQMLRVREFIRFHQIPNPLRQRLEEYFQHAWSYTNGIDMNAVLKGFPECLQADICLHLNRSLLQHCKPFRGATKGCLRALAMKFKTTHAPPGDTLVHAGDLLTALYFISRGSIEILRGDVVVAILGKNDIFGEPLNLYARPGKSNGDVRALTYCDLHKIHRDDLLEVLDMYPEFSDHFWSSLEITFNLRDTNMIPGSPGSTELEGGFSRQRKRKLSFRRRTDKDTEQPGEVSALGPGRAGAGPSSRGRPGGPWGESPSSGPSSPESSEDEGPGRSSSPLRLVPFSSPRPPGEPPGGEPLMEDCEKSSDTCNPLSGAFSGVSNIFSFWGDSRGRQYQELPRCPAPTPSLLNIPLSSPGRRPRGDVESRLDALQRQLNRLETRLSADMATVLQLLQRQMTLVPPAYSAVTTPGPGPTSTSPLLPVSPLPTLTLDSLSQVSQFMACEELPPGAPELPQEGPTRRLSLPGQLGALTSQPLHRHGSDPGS
# Assay: hERG channel automated patch clamp
# Format: cell-based
# Conditions: hERG inhibition IC50, patch clamp, tested three times
row,Compound,IC50 [nM]
1,Cn1c2c(c3ccccc31)CN(CCCCNC(=O)c1cc3ccccc3[nH]1)CC2 [36a],1320

# Target: T2, hD2R (Homo sapiens, UniProt P14416)
# T2 sequence (P14416 whole entry): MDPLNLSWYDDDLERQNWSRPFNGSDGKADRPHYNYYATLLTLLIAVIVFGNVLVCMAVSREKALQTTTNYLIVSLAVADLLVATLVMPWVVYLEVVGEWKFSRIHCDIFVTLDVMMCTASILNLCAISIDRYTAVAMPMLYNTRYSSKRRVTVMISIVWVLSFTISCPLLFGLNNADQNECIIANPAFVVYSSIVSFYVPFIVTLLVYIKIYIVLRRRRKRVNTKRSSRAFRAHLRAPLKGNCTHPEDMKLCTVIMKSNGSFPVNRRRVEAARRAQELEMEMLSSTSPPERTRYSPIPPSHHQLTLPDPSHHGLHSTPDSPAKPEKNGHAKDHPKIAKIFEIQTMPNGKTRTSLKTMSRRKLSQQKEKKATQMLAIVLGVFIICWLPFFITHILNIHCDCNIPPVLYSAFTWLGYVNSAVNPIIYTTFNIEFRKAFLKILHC
# Assay: biochemical
# Format: binding
# Conditions: not given
row,Compound,Ki [nM]
1,CCn1c2ccccc2c2cc(CNCCCCNC(=O)c3ccc(-c4ccc(C(C)=O)cc4)cc3)ccc21 [23h],> 10000
2,CCn1c2ccccc2c2cc(CNCCCCNC(=O)c3ccc4[nH]c5ccccc5c4c3)ccc21 [23k],> 10000
3,CCn1c2ccccc2c2cc(CNCCCCNC(=O)c3cnc4ccccc4c3)ccc21 [23l],> 10000
4,CCN(CCCCNC(=O)c1cc2ccccc2[nH]1)Cc1ccc2c(c1)c1ccccc1n2CC [31a],333 ± 3.6
5,CCN(CCCCNC(=O)c1ccc(-c2cccnc2)cc1)Cc1ccc2c(c1)c1ccccc1n2CC [31b],> 10000
6,CCCN(CCCCNC(=O)c1cc2ccccc2[nH]1)Cc1ccc2c(c1)c1ccccc1n2CC [31c],301 ± 11.9
7,CCCN(CCCCNC(=O)c1ccc(-c2cccnc2)cc1)Cc1ccc2c(c1)c1ccccc1n2CC [31d],> 10000
8,CCCN(CCCCNC(=O)c1cc2ccccn2n1)Cc1ccc2c(c1)c1ccccc1n2CC [31e],> 10000
9,Cn1c2c(c3ccccc31)CN(CCCCNC(=O)c1cc3ccccc3[nH]1)CC2 [36a],> 10000
10,Cn1c2c(c3ccccc31)CN(CCCCNC(=O)c1ccc(-c3cccnc3)cc1)CC2 [36g],> 10000
11,Cn1c2c(c3ccccc31)CN(CCCCNC(=O)c1ccc3[nH]c(=O)[nH]c3c1)CC2 [36i],> 10000

# Same assay, conditions: read-out: % inhibition at 10 μmol/L hD2
row,Compound,inhibition at 10 µM [%]
1,CCn1c2ccccc2c2cc(CNCCCCNC(=O)c3ccc(-c4ccc(C(C)=O)cc4)cc3)ccc21 [23h],5.2 ± 7.6
2,CCn1c2ccccc2c2cc(CNCCCCNC(=O)c3ccc4[nH]c5ccccc5c4c3)ccc21 [23k],10.6 ± 3.3
3,CCn1c2ccccc2c2cc(CNCCCCNC(=O)c3cnc4ccccc4c3)ccc21 [23l],9.6 ± 0.1
4,CCN(CCCCNC(=O)c1cc2ccccc2[nH]1)Cc1ccc2c(c1)c1ccccc1n2CC [31a],88.1 ± 1.5
5,CCN(CCCCNC(=O)c1ccc(-c2cccnc2)cc1)Cc1ccc2c(c1)c1ccccc1n2CC [31b],36.9 ± 2.1
6,CCCN(CCCCNC(=O)c1cc2ccccc2[nH]1)Cc1ccc2c(c1)c1ccccc1n2CC [31c],89.8 ± 2.9
7,CCCN(CCCCNC(=O)c1ccc(-c2cccnc2)cc1)Cc1ccc2c(c1)c1ccccc1n2CC [31d],26.8 ± 0.9
8,CCCN(CCCCNC(=O)c1cc2ccccn2n1)Cc1ccc2c(c1)c1ccccc1n2CC [31e],18.6 ± 2.5
9,Cn1c2c(c3ccccc31)CN(CCCCNC(=O)c1cc3ccccc3[nH]1)CC2 [36a],20.9 ± 3.8
10,Cn1c2c(c3ccccc31)CN(CCCCNC(=O)c1ccc(-c3cccnc3)cc1)CC2 [36g],29.2 ± 5.8
11,Cn1c2c(c3ccccc31)CN(CCCCNC(=O)c1ccc3[nH]c4ccccc4c3c1)CC2 [36h],74.4 ± 3.3
12,Cn1c2c(c3ccccc31)CN(CCCCNC(=O)c1ccc3[nH]c(=O)[nH]c3c1)CC2 [36i],38.9 ± 3.8

# Target: T2, hD2R
# Assay: not given
# Format: cell-based
# Conditions: not given
row,Compound,"effect on ERK1/2 phosphorylation mediated by hD2R, compound alone (agonist mode)"
1,Cn1c2c(c3ccccc31)CN(CCCCNC(=O)c1cc3ccccc3[nH]1)CC2 [36a],weak partial agonism

# Tested on: ICR mice
# Assay: Spontaneous locomotor test
# Conditions: compounds 30 mg/kg i.p., RPD 1 mg/kg, 15 min
row,Compound,effect on spontaneous locomotion
1,Cn1c2c(c3ccccc31)CN(CCCCNC(=O)c1cc3ccccc3[nH]1)CC2 [36a],no influences

# Tested on: PC12 cells
# Assay: CCK8 cytotoxicity test, PC12
# Format: cell-based
# Conditions: 24 h
row,Compound,cytotoxicity in PC12 cells
1,Cn1c2c(c3ccccc31)CN(CCCCNC(=O)c1cc3ccccc3[nH]1)CC2 [36a],significant cytotoxicity at high concentrations

# Target: T1, hD3R
# Assay: ERK1/2 phosphorylation
# Format: cell-based
# Conditions: CHO-hD3R cells; quinpirole at 20 μmol/L
row,Compound,"effect on ERK1/2 phosphorylation mediated by hD3R, compound alone (agonist mode)"
1,Cn1c2c(c3ccccc31)CN(CCCCNC(=O)c1cc3ccccc3[nH]1)CC2 [36a],no influence

# Same assay, conditions: in the presence of 20 μmol/L dopamine
row,Compound,competitive antagonism of ERK1/2 phosphorylation mediated by D3R
1,Cn1c2c(c3ccccc31)CN(CCCCNC(=O)c1cc3ccccc3[nH]1)CC2 [36a],dose-dependently inhibit

# Tested on: ICR mice
# Assay: MK-801-induced hyperactivity
# Conditions: 3 mg/kg i.p.
row,Compound,inhibition of MK-801-induced hyperactivity at 3 mg/kg
1,Cn1c2c(c3ccccc31)CN(CCCCNC(=O)c1cc3ccccc3[nH]1)CC2 [36a],did not show the inhibition activity

# Tested on: mice
# Assay: Catalepsy test in mice
# Format: in vivo, mouse
# Conditions: not given
row,Compound,Catalepsy MED i.p. (minimum effective dose) [mg/kg]
1,Cn1c2c(c3ccccc31)CN(CCCCNC(=O)c1cc3ccccc3[nH]1)CC2 [36a],≥480.0

# Same assay, conditions: i.p.
row,Compound,Catalepsy peak effect (percent of cataleptic animals) [%]
1,Cn1c2c(c3ccccc31)CN(CCCCNC(=O)c1cc3ccccc3[nH]1)CC2 [36a],0.0

# Same assay, conditions: i.p., 23j up to 240 mg/kg, 36a/b/f up to 480 mg/kg
row,Compound,catalepsy under all tested doses
1,Cn1c2c(c3ccccc31)CN(CCCCNC(=O)c1cc3ccccc3[nH]1)CC2 [36a],did not elicit catalepsy
